Test results as given in PMC10301432, “Antiplasmodial, Trypanocidal, and Genotoxicity In Vitro Assessment of New Hybrid α,α-Difluorophenylacetamide-statin Derivatives” (Pharmaceuticals, 2023).
“Also recorded” adds a separate entry of the source.

Experiments:
[1] = system: CHO-K1 and HepG2 cell lineages; format: cell-based
Experimental: Fresh HepG2 and CHO-K1 cells were seeded at the density of 1 × 10^5 cells/mL into 24-well plates (1 mL/per well). The compounds 13 (a–d) were then added to the medium to final concentrations of 500, 1000 and 2000 µM and incubation continued for 3 h or 24 h. DMSO 10% was used as the negative control, and, BaP (80 µM) for HepG2 and MMC (5 µM) for CHO-K1 were the positive controls. After exposure to the compounds, the cells were incubated for more than 24 h under growth conditions before quantification of the micronuclei and cytotoxicity. The cytogenetic studies were carried out in triplicate as described previously (see [51]). In order to determine the mitotic index and the number of cells with micronuclei, the medium was replaced by a cold methanol-glacial acetic acid (3:1) fixative for 30 min, and the cells then rinsed with distilled water for 2 min and air dried. The fixed cells were stained with 4,6-diamidino-2-phenylindole (DAPI) ([…]) dissolved in McIlvaine buffer (0.1 M citric acid plus 0.2 M Na2HPO4, pH 7.0) for 60 min, washed with McIlvaine buffer for 5 min, briefly rinsed with distilled water and mounted in glycerol. To determine the mitotic index and the number of cells with micronuclei, 1000 cells per well (3000 cells per concentration) were analyzed under a fluorescence microscope. The results for micronuclei were presented as the percentage of cells containing micronuclei in the 3000 cells/concentration group analyzed. Cells that glowed brightly and had homogenous nuclei were considered as having normal phenotypic morphology. Apoptotic nuclei were identified by the condensed chromatin at the periphery of the nuclear membrane or by fragmented nuclear body morphology. […] Once again, 3000 cells were counted and the percentage of viable cells was evaluated, discounting apoptotic and necrotic cells. Statistical differences between the groups were analyzed by two-way ANOVA (p < 0.01) and Tukey’s post hoc test.

in vitro [2] = conditions: Salmonella enterica serovar Typhimurium, pH 7.4
T. cruzi = experiment: Trypanocidal in vitro phenotypic screening, overall outcome; format: cell-based, Trypanosoma cruzi; conditions: summarized outcome
Experimental: Bloodstream trypomastigote forms (BT) of the Y strain were obtained from infected albino Swiss mice at the peak of parasitemia, isolated by differential centrifugation and resuspended in DMEM to a parasite concentration of 10^7 cells/mL in the presence of 10% of mouse blood. This suspension (100 µL) was added in the same volume of 13 (a–d) and 14 (a–d) previously prepared at twice the desired final concentrations.
(§1) Tissue culture-derived trypomastigotes (Tulahuen strain expressing the E. coli β-galactosidase gene) were maintained in L929 cell lines and collected from the supernatant after 96 h of parasite infection, following previously established protocols. Briefly, after 24 h of L929 platting (4 × 10^3 cells/well), the cultures were incubated with trypomastigotes (10:1 parasite/host cell ratio) for 2 h at 37 °C. Then, the cell cultures were rinsed to remove non-internalized parasites and then further incubated for 24 h at 37 °C. Then the infected cultures were followed using two sequential protocols. […] After this period, 50 µL chlorophenol red glycoside (500 µM) in 0.5% Nonidet P40 was added to each well and the plate was incubated for more than 18 h at 37 °C, after which the absorbance was measured at 570 nm. Then, the compounds were next evaluated using dose–response assays in which Tulahuen-infected-L929 cells were exposed to different non-toxic concentrations of each compound (0–50 µM) and then after 96 h of incubation the same procedure was conducted as above reported. Controls with untreated and Bz-treated cells are run in parallel. The results were expressed as the percent difference in the reduction between treated and untreated cells.

[3] = system: intracellular forms of T. cruzi (Tulahuen strain transfected with β-galactosidase); experiment: Activity against intracellular T. cruzi in L929 cells; format: cell-based, Trypanosoma cruzi; conditions: for SI: LC50 (L929)/EC50 (intracellular forms); for EC50: intracellular forms, Tulahuen strain; for EC50 / 10µM (% of Parasite Lysis): 96 h; for 10µM (% of Parasite Lysis): fixed concentration 10 µM
Experimental: as §1, with “Then, the compounds were next evaluated using dose–response assays in which Tulahuen-infected-L929 cells were exposed to different non-toxic concentrations of each compound (0–50 µM) and then after 96 h of incubation the same procedure was conducted as above reported.” left out

[4] = system: Salmonella enterica serovar Typhimurium TA97; experiment: Salmonella/microsome assay, TA97; conditions: for mutagenicity to TA97: at concentrations above 300 µM
Experimental: Salmonella enterica serovar Typhimurium (S. typhimurium) strains TA97, TA98, TA100, TA104 and TA102 from the authors’ stock were used as described in the mutagenicity assay.
To determine the cytotoxic effects, after 30 min pre-incubation, the assay mixtures were diluted in 0.9% NaCl (w/v) to obtain a suspension containing 2 × 10^2 cells/mL. […] The plates were then incubated at 37 °C for 24 h and the colonies counted. All the experiments were conducted in triplicate and were repeated at least twice. Statistical differences between the groups were analyzed by a two-way ANOVA (p < 0.05) and Tukey’s post hoc test.

in vitro [5] = format: cell-based; conditions: mouse
Experimental: Primary cultures of cardiac cells (CC) were obtained as reported in [50]. The cultures were sustained in Dulbecco’s modified Eagle’s medium (DMEM) supplemented with 10% horse serum, 5% fetal bovine serum (FBS), 2.5 mM CaCl2, 1 mM L-glutamine, and 2% chicken embryo extract. Cell cultures were maintained at 37 °C in an atmosphere of 5% CO2, and assays were run at least three times in triplicate.
(§2) Cardiac cell cultures were incubated for 24 h at 37 °C with different concentrations of the compounds (up to 200 µM) diluted in DMEM (without phenol red). Their morphology and spontaneous contractibility were evaluated by light microscopy and then the cellular viability was determined by the PrestoBlue® assay. For this colorimetric bioassay, PrestoBlue® (Invitrogen, Waltham, MA, USA) was added to each well (using a 10:1 medium/dye), the plate was further incubated for 24 h followed by optical density (OD) measurement performed at 570 and 600 nm, as recommended by the manufacturer.

in vitro [6] = format: cell-based; conditions: mouse; remark: listed apart in the source
Experimental: as §2

[7] = Trypanosoma cruzi, TULAHUEN, L929, 96 h

| Compound | Mammalian Cell Genotoxicity [1] | CC50 (in vitro [2]) [µM] | Trypanocidal Activity (T. cruzi) | SI [3] | EC50 [3, 7] [µM] | revertant His+ colonies TA97 ([4]; +S9, 3 µM) | revertant His+ colonies TA97 ([4]; +S9, 15 µM) | revertant His+ colonies TA97 ([4]; +S9, 30 µM) | revertant His+ colonies TA97 ([4]; +S9, 150 µM) | revertant His+ colonies TA97 ([4]; +S9, 300 µM) | revertant His+ colonies TA97 ([4]; +S9, 1500 µM) | revertant His+ colonies TA97 ([4]; −S9, 3 µM) | revertant His+ colonies TA97 ([4]; −S9, 15 µM) | revertant His+ colonies TA97 ([4]; −S9, 30 µM) | revertant His+ colonies TA97 ([4]; −S9, 150 µM) | revertant His+ colonies TA97 ([4]; −S9, 300 µM) | revertant His+ colonies TA97 ([4]; −S9, 1500 µM) | CC50 at 24 h (in vitro [5]) [µM] | CC50 at 96 h (in vitro [6]) [µM] | 10µM (% of Parasite Lysis) [3] [%] | further results |
| --- | --- | --- | --- | --- | --- | --- | --- | --- | --- | --- | --- | --- | --- | --- | --- | --- | --- | --- | --- | --- | --- |
| CC(=O)Nc1ccc(Br)cc1C(F)(F)C(=O)NCC[C@@H]1C[C@H](CC(=O)OC(C)(C)C)OC(C)(C)O1 [Compound 13d, tert-Butyl 2-((4R,6R)-6-(2-(2-(2-acetamido-5-bromophenyl)-2,2-difluoroacetamido)ethyl)-2,2-dimethyl-1,3-dioxan-4-yl)acetate] | Yes | 14.7 ± 1.8 | Yes | 10 | 11.4 ± 3.29 | 134 ± 3 | 135 ± 1 | 201 ± 4 | 203 ± 1 | 288 ± 6 | 410 ± 10 | 119 ± 8 | 137 ± 1 | 135 ± 4 | 134 ± 4 | 146 ± 6 | Cytotoxic | > 500 | 114 ± 5.29 |  | mutagenicity to TA97 ([4]; +S9): significant mutagenicity; also recorded: mutagenic; mutagenicity to TA97 ([4]; −S9): significant mutagenicity; also recorded: mutagenic |
| CC(=O)Nc1ccc(C)cc1C(F)(F)C(=O)NCC[C@@H]1C[C@H](CC(=O)OC(C)(C)C)OC(C)(C)O1 [Compound 13b, tert-Butyl 2-((4R,6R)-6-(2-(2-(2-acetamido-5-methylphenyl)-2,2-difluoroacetamido)ethyl)-2,2-dimethyl-1,3-dioxan-4-yl)acetate] | Yes | > 1500 | No |  | ≥ 50 | 189 ± 43 | 183 ± 43 | 216 ± 47 | 231 ± 5 | 244 ± 23 | 288 ± 33 | 69 ± 12 | 76 ± 7 | 75 ± 12 | 74 ± 12 | 84 ± 7 | 89 ± 27 | > 500 | 114 ± 35.4 | 25.41 ± 10.90 | EC50 [3]: > 50 µM |
| CC(=O)Nc1ccccc1C(F)(F)C(=O)NCC[C@@H]1C[C@H](CC(=O)OC(C)(C)C)OC(C)(C)O1 [Compound 13a, tert-Butyl 2-((4R,6R)-6-(2-(2-(2-acetamidophenyl)-2,2-difluoroacetamido)ethyl)-2,2-dimethyl-1,3-dioxan-4-yl)acetate] | Yes | 1480 ± 56.1 | No |  | ≥ 50 | 214 ± 21 | 217 ± 9 | 235 ± 23 | 237 ± 26 | 237 ± 4 | 290 ± 28 | 78 ± 6 | 82 ± 8 | 79 ± 8 | 69 ± 10 | 80 ± 11 | 90 ± 9 | > 500 | 112 ± 28.3 | 17.92 ± 11.02 | EC50 [3]: > 50 µM |
| CC(=O)Nc1ccc(Cl)cc1C(F)(F)C(=O)NCC[C@@H]1C[C@H](CC(=O)OC(C)(C)C)OC(C)(C)O1 [Compound 13c, tert-Butyl 2-((4R,6R)-6-(2-(2-(2-acetamido-5-chlorophenyl)-2,2-difluoroacetamido)ethyl)-2,2-dimethyl-1,3-dioxan-4-yl)acetate] |  |  | Yes | 16.7 | 9.24 ± 1.06 | 219 ± 16 | 245 ± 22 | 247 ± 14 | 249 ± 17 | 259 ± 1 | 261 ± 13 | 81 ± 6 | 84 ± 8 | 84 ± 6 | 70 ± 6 | 71 ± 11 | 62 ± 9 | > 500 | 153 ± 25.2 |  |  |
